Test system: CN0375-F725-PDC KRAS spheroid viability
Assay: Anticancer human tumor CN0375-F725-PDC patient-derived colon carcinoma cell line growth inhibition [KRAS2]
Conditions: spheroids with HUVEC and MSC; for IC50: curve of first compound; for viability, T/C: stronger effect = lower value; active means viability on the fitted dose curve at most 10% of control; inactive means the rest
Method in brief: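 KRAS-mutant tumor cells were grown as spheroids with HUVEC endothelial cells and human MSCs as stroma. Targeted agents were tested alone and with KRAS pathway inhibitors. Doses started at or near clinical Cmax, or 10 microM, descending half-log.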

[1] = second compound 0.1 µM, first compound 0.0316 µM
[2] = second compound 0.316 µM, first compound 0.0316 µM
[3] = second compound 1 µM, first compound 0.0316 µM
[4] = second compound 3.16 µM, first compound 0.0316 µM
[5] = second compound 10 µM, first compound 0.0316 µM
[6] = second compound 0.1 µM, first compound 0.1 µM
[7] = second compound 0.1 µM, first compound 0.316 µM
[8] = second compound 0.1 µM, first compound 1 µM
[9] = second compound 0.1 µM, first compound 3.16 µM
[10] = second compound 0.1 µM, first compound 10 µM
[11] = second compound 0.316 µM, first compound 0.1 µM
[12] = second compound 0.316 µM, first compound 0.316 µM
[13] = second compound 0.316 µM, first compound 1 µM
[14] = second compound 0.316 µM, first compound 3.16 µM
[15] = second compound 0.316 µM, first compound 10 µM
[16] = second compound 1 µM, first compound 0.1 µM
[17] = second compound 1 µM, first compound 0.316 µM
[18] = second compound 1 µM, first compound 1 µM
[19] = second compound 1 µM, first compound 3.16 µM
[20] = second compound 1 µM, first compound 10 µM
[21] = second compound 3.16 µM, first compound 0.1 µM
[22] = second compound 3.16 µM, first compound 0.316 µM
[23] = second compound 3.16 µM, first compound 1 µM
[24] = second compound 3.16 µM, first compound 3.16 µM
[25] = second compound 3.16 µM, first compound 10 µM
[26] = second compound 10 µM, first compound 0.1 µM
[27] = second compound 10 µM, first compound 0.316 µM
[28] = second compound 10 µM, first compound 1 µM
[29] = second compound 10 µM, first compound 3.16 µM
[30] = second compound 10 µM, first compound 10 µM
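Further: spheroids exposed to agents for 7 days.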

CC(=O)Nc1cccc(-n2c(=O)n(C3CC3)c(=O)c3c(Nc4ccc(I)cc4F)n(C)c(=O)c(C)c32)c1 + CC1OCC2(CCN(c3cnc(Sc4ccnc(N)c4Cl)c(N)n3)CC2)C1N
0.257 nM: IC50 (second compound 10 µM)
0.826 nM: IC50 (second compound 3.16 µM)
inactive: viability, T/C (second compound 0.1 µM, first compound 0.0001 µM) 90.5% | viability, T/C (second compound 0.1 µM, first compound 0.000316 µM) 79.2% | viability, T/C (second compound 0.1 µM, first compound 0.001 µM) 64% | viability, T/C (second compound 0.1 µM, first compound 0.00316 µM) 54.7% | viability, T/C (second compound 0.1 µM, first compound 0.01 µM) 42.8% | viability, T/C [1] 30.5% | viability, T/C (second compound 0.316 µM, first compound 0.0001 µM) 84.5% | viability, T/C (second compound 0.316 µM, first compound 0.000316 µM) 75.8% | viability, T/C (second compound 0.316 µM, first compound 0.001 µM) 57.5% | viability, T/C (second compound 0.316 µM, first compound 0.00316 µM) 44.9% | viability, T/C (second compound 0.316 µM, first compound 0.01 µM) 39.2% | viability, T/C [2] 32.5% | viability, T/C (second compound 1 µM, first compound 0.0001 µM) 78.4% | viability, T/C (second compound 1 µM, first compound 0.000316 µM) 66.8% | viability, T/C (second compound 1 µM, first compound 0.001 µM) 55.1% | viability, T/C (second compound 1 µM, first compound 0.00316 µM) 42.5% | viability, T/C (second compound 1 µM, first compound 0.01 µM) 35% | viability, T/C [3] 27.4% | viability, T/C (second compound 3.16 µM, first compound 0.0001 µM) 66.5% | viability, T/C (second compound 3.16 µM, first compound 0.000316 µM) 65.8% | viability, T/C (second compound 3.16 µM, first compound 0.001 µM) 45.2% | viability, T/C (second compound 3.16 µM, first compound 0.00316 µM) 36.2% | viability, T/C (second compound 3.16 µM, first compound 0.01 µM) 31.4% | viability, T/C [4] 27.2% | viability, T/C (second compound 10 µM, first compound 0.0001 µM) 63.1% | viability, T/C (second compound 10 µM, first compound 0.000316 µM) 46.4% | viability, T/C (second compound 10 µM, first compound 0.001 µM) 37.6% | viability, T/C (second compound 10 µM, first compound 0.00316 µM) 30% | viability, T/C (second compound 10 µM, first compound 0.01 µM) 23.5% | viability, T/C [5] 24.6%
1.61 nM: IC50 (second compound 1 µM)
4.59 nM: IC50 (second compound 0.1 µM)
2.09 nM: IC50 (second compound 0.316 µM)

COC(=O)c1ccc2c(C(=Nc3ccc(N(C)C(=O)CN4CCN(C)CC4)cc3)c3ccccc3)c(O)[nH]c2c1 + CC1OCC2(CCN(c3cnc(Sc4ccnc(N)c4Cl)c(N)n3)CC2)C1N
2180 nM: IC50 (second compound 0.316 µM)
2340 nM: IC50 (second compound 0.1 µM)
2250 nM: IC50 (second compound 1 µM)
2010 nM: IC50 (second compound 3.16 µM)
1270 nM: IC50 (second compound 10 µM)
active: viability, T/C [10] 0.19% | viability, T/C [15] 0.2% | viability, T/C [20] 0.16% | viability, T/C [25] 0.37% | viability, T/C [30] 1.38%
inactive: viability, T/C [1] 104% | viability, T/C [6] 103% | viability, T/C [7] 89.3% | viability, T/C [8] 85.9% | viability, T/C [9] 37.4% | viability, T/C [2] 102% | viability, T/C [11] 91% | viability, T/C [12] 84.8% | viability, T/C [13] 81.3% | viability, T/C [14] 35.4% | viability, T/C [3] 79.2% | viability, T/C [16] 84.6% | viability, T/C [17] 93.5% | viability, T/C [18] 75.3% | viability, T/C [19] 38.8% | viability, T/C [4] 76% | viability, T/C [21] 82.4% | viability, T/C [22] 83.2% | viability, T/C [23] 69.2% | viability, T/C [24] 36.9% | viability, T/C [5] 66% | viability, T/C [26] 73.2% | viability, T/C [27] 68.5% | viability, T/C [28] 60.3% | viability, T/C [29] 11.7%

COc1cc(Nc2ncc3c(n2)-c2ccc(Cl)cc2C(c2c(F)cccc2OC)=NC3)ccc1C(=O)O + CC1OCC2(CCN(c3cnc(Sc4ccnc(N)c4Cl)c(N)n3)CC2)C1N
> 10000 nM: IC50 (second compound 0.1 µM) | IC50 (second compound 0.316 µM) | IC50 (second compound 1 µM) | IC50 (second compound 3.16 µM) | IC50 (second compound 10 µM)
inactive: viability, T/C [1] 91.5% | viability, T/C [6] 90.4% | viability, T/C [7] 85.8% | viability, T/C [8] 80.5% | viability, T/C [9] 84.6% | viability, T/C [10] 70% | viability, T/C [2] 88.8% | viability, T/C [11] 86.5% | viability, T/C [12] 85.6% | viability, T/C [13] 82.1% | viability, T/C [14] 82.7% | viability, T/C [15] 72.5% | viability, T/C [3] 79.9% | viability, T/C [16] 81.9% | viability, T/C [17] 82.2% | viability, T/C [18] 75.9% | viability, T/C [19] 74.7% | viability, T/C [20] 64.7% | viability, T/C [4] 81% | viability, T/C [21] 74.6% | viability, T/C [22] 70.3% | viability, T/C [23] 70.6% | viability, T/C [24] 67.9% | viability, T/C [25] 62.8% | viability, T/C [5] 66.7% | viability, T/C [26] 71.4% | viability, T/C [27] 67.2% | viability, T/C [28] 62.6% | viability, T/C [29] 61.6% | viability, T/C [30] 53.6%

COc1cc2nccc(Oc3ccc(NC(=O)C4(C(=O)Nc5ccc(F)cc5)CC4)cc3)c2cc1OC + CC1OCC2(CCN(c3cnc(Sc4ccnc(N)c4Cl)c(N)n3)CC2)C1N
> 10000 nM: IC50 (second compound 0.1 µM)
inactive: viability, T/C [1] 104% | viability, T/C [6] 94.5% | viability, T/C [7] 83.3% | viability, T/C [8] 69.3% | viability, T/C [9] 56.3% | viability, T/C [10] 63.2% | viability, T/C [2] 99.5% | viability, T/C [11] 94.6% | viability, T/C [12] 85.9% | viability, T/C [13] 68.4% | viability, T/C [14] 44.6% | viability, T/C [15] 53.5% | viability, T/C [3] 86.3% | viability, T/C [16] 84.7% | viability, T/C [17] 75.5% | viability, T/C [18] 67.9% | viability, T/C [19] 38.4% | viability, T/C [20] 53.9% | viability, T/C [4] 84.4% | viability, T/C [21] 78.9% | viability, T/C [22] 71.7% | viability, T/C [23] 60.7% | viability, T/C [24] 36.7% | viability, T/C [25] 46.8% | viability, T/C [5] 66.9% | viability, T/C [26] 69.3% | viability, T/C [27] 57.9% | viability, T/C [28] 46.2% | viability, T/C [29] 25.9% | viability, T/C [30] 31.2%
1880 nM: IC50 (second compound 3.16 µM)
2580 nM: IC50 (second compound 1 µM)
5810 nM: IC50 (second compound 0.316 µM)
644 nM: IC50 (second compound 10 µM)

O=C(c1cc(Cc2n[nH]c(=O)c3ccccc23)ccc1F)N1CCN(C(=O)C2CC2)CC1 + CC1OCC2(CCN(c3cnc(Sc4ccnc(N)c4Cl)c(N)n3)CC2)C1N
inactive: viability, T/C [1] 97.7% | viability, T/C [6] 98.4% | viability, T/C [7] 91.3% | viability, T/C [8] 100% | viability, T/C [9] 97.8% | viability, T/C [10] 90% | viability, T/C [2] 100% | viability, T/C [11] 93.9% | viability, T/C [12] 90.3% | viability, T/C [13] 89.6% | viability, T/C [14] 93% | viability, T/C [15] 86.4% | viability, T/C [3] 107% | viability, T/C [16] 98.3% | viability, T/C [17] 93.6% | viability, T/C [18] 92.6% | viability, T/C [19] 97.6% | viability, T/C [20] 93.9% | viability, T/C [4] 83.4% | viability, T/C [21] 82.2% | viability, T/C [22] 82.5% | viability, T/C [23] 80.7% | viability, T/C [24] 80.7% | viability, T/C [25] 76.4% | viability, T/C [5] 79.9% | viability, T/C [26] 83.6% | viability, T/C [27] 106% | viability, T/C [28] 77% | viability, T/C [29] 71.4% | viability, T/C [30] 71.1%
> 10000 nM: IC50 (second compound 0.1 µM) | IC50 (second compound 0.316 µM) | IC50 (second compound 1 µM) | IC50 (second compound 3.16 µM) | IC50 (second compound 10 µM)

— PubChem BioAssay AID1963860 (Molecular Pharmacology Branch, DTP, NCI, 2024)
